Laboratory results taken from patent US5596002A, “Method of treating chloroquine-resistant malaria with aminoquinoline derivatives” (Hoffmann-La Roche Inc., priority 1993, dated 1997).
Converted amounts (≈) assume the structure as drawn. Read-outs that look alike come from different tables or passages of the source.

How the values were obtained:
[1] = test system: Plasmodium falciparum, chloroquine-sensitive strain NF54; test: activity against P. falciparum in vitro, strain NF54; type: cell-based; settings: Plasmodium falciparum; chloroquine-sensitive strain NF54; 48 h-72 h; read-out: IC50 (50% growth inhibition)
Procedure, shortened: (§1)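 Asynchronous intraerythrocytic cultures (0.7% parasitemia, 2.5% human A+ erythrocytes) were grown in RPMI 1640 with HEPES, NaHCO3 and 10% human serum, at 37 °C under 3% O2, 4% CO2. Cultures were exposed to DMSO-dissolved compound titrated over 6-7 steps for 48–72 h. Growth was read by [G-3H]-hypoxanthine incorporation versus untreated controls, with IC50 obtained by logit regression.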

[2] = test system: Plasmodium falciparum, chloroquine-sensitive strain FCH5C2; test: activity against P. falciparum in vitro, strain FCH5C2; type: cell-based; settings: chloroquine-sensitive strain FCH5C2, 48 h-72 h, read-out: IC50 (50% growth inhibition)
Procedure, shortened: as §1

[3] = test system: Plasmodium falciparum, chloroquine-sensitive strain HB3; test: activity against P. falciparum in vitro, strain HB3; type: cell-based; settings: chloroquine-sensitive strain HB3, 48 h-72 h, read-out: IC50 (50% growth inhibition)
Procedure, shortened: as §1

[4] = test system: Plasmodium falciparum, chloroquine-sensitive strain RFMEF3; test: activity against P. falciparum in vitro, strain RFMEF3; type: cell-based; settings: chloroquine-sensitive strain RFMEF3, 48 h-72 h, read-out: IC50 (50% growth inhibition)
Procedure: (§2) Test method for the determination of the activity against P. falciparum in vitro
(§3) The preparations of the present invention were tested on intraerythrocytary stages of P. falciparum from asynchronous cultures according to the method of Desjardin et al. (Desjardins, R. E. et al: Quantitative assessment of antimalarial activity in vitro by a semiautomated microdilution technique. Antimicrob. Agents Chemother. 16, 710-718, (1979)).
(§4) The culture medium consisted of RPMI 1640 with the addition of 25 mM HEPES, 25 mM NaHCO3, […] neomycin and 10% human serum (A^+). Human-A^+ erythrocytes were used as the P. falciparum host cells. The parasites were maintained at 37° C. in an atmosphere of 3% O2, 4% CO2, 93% N2 and at 95% relative humidity.
(§5) In order to determine the activity, the preparations were dissolved in DMSO, pre-diluted in the culture medium to a suitable starting concentration and subsequently titrated-out into microtitre plates in the 2nd stage over 6-7 steps. After the addition of the parasite culture (0.7% parasitemia in 2.5% erythrocyte suspension), the test plates were incubated under the conditions given above for 48 h-72 h. The parasite growth in the different preparation concentrations was determined using [G-^3 H]-hypoxanthin incorporation compared to untreated control cultures on the same test plates. The 50% growth inhibition (IC50) was calculated according to logit regression analysis from the resulting dosage-activity curve.
(§6) The preparations were tested on at least one chloroquine-resistant and one chloroquine-sensitive P. falciparum strain. Additional sensitive and resistant strains were also included for further characterization.
(§7) Table 1 below contains the IC50 values measured in vitro for the growth inhibition of chloroquine-sensitive and chloroquine-resistant strains of the human pathogenic Plasmodium falciparum.

[5] = test system: Plasmodium falciparum, chloroquine-sensitive strain Ro7 3; test: activity against P. falciparum in vitro, strain Ro7 3; type: cell-based; settings: chloroquine-sensitive strain Ro7 3, 48 h-72 h, read-out: IC50 (50% growth inhibition)
Procedure: as §2, §3, §4, §5, §6, §7

[6] = test system: Plasmodium falciparum, chloroquine-resistant strain RFCR3; test: activity against P. falciparum in vitro, strain RFCR3; type: cell-based; settings: chloroquine-resistant strain RFCR3, 48 h-72 h, read-out: IC50 (50% growth inhibition)
Procedure, shortened: as §1

[7] = test system: Plasmodium falciparum, chloroquine-resistant strain ItG2 F6; test: activity against P. falciparum in vitro, strain ItG2 F6; type: cell-based; settings: chloroquine-resistant strain ItG2 F6, 48 h-72 h, read-out: IC50 (50% growth inhibition)
Procedure, shortened: as §1

[8] = test system: Plasmodium falciparum, chloroquine-resistant strain Indo; test: activity against P. falciparum in vitro, strain Indo; type: cell-based; settings: chloroquine-resistant strain Indo, 48 h-72 h, read-out: IC50 (50% growth inhibition)
Procedure, shortened: as §1

[9] = test system: Plasmodium falciparum, chloroquine-resistant strain K1; test: activity against P. falciparum in vitro, strain K1; type: cell-based; settings: Plasmodium falciparum; chloroquine-resistant strain K1; 48 h-72 h; read-out: IC50 (50% growth inhibition)
Procedure, shortened: as §1

[10] = test system: Plasmodium falciparum, chloroquine-resistant strain W2; test: activity against P. falciparum in vitro, strain W2; type: cell-based; settings: chloroquine-resistant strain W2, 48 h-72 h, read-out: IC50 (50% growth inhibition)
Procedure, shortened: as §1

[11] = test system: Plasmodium falciparum, chloroquine-resistant strain 7G8; test: activity against P. falciparum in vitro, strain 7G8; type: cell-based; settings: chloroquine-resistant strain 7G8, 48 h-72 h, read-out: IC50 (50% growth inhibition)
Procedure, shortened: as §1

[12] = test system: Plasmodium falciparum, chloroquine-resistant strain W2 Mef; test: activity against P. falciparum in vitro, strain W2 Mef; type: cell-based; settings: 48 h-72 h, read-out: IC50 (50% growth inhibition)
Procedure, shortened: as §1

[13] = test system: Plasmodium berghei (strain ANKA); test: activity against Plasmodium berghei in vivo (infected mice); settings: mice; for ED50: single administration po, dose reducing average erythrocyte infection rate by 50%, read-out: ED50 (po); for inhibition in vivo at 10 mg/kg: 48 hours after treatment (D+3)
Procedure: Test method for the determination of the activity against Plasmodium berghei in vivo
The preparations according to the present invention were tested on mice infected with malaria pathogens (Plasmodium berghei). Male albino mice (IBM:MORO(SPF), FUELLINSDORF) weighing about 25 g were used as the test animals. They were kept in climatized rooms at 21°-22° C. in groups of 5 animals per cage. They received ad libitum a diet feed with a low PABA content ("NAFAG FUTTER" No. 9009 PAB-45, PABA content 45 mg/kg) and drinking water. On the first day of the test (D0) the test animals were infected with Plasmodium berghei (strain ANKA). For this there was used heparinized blood of a donor mouse with about 30% parasitemia, which was diluted with physiological saline such that it contains 10^8 parasitized erythrocytes per ml. 0.2 ml of this suspension was injected intravenously (i.v.) into the mice to be treated and into the control mice. In untreated control animals the parasitemia normally reaches 30-40% on the third day after the infection (D+3) and the test animals die between days +5 and +7.
The substances to be tested were dissolved or suspended in distilled water or in a mixture of 7% Tween 80, 3% alcohol (96%) and water. Usually, 0.25 ml of this solution or suspension was administered once subcutaneously and perorally to groups of 5 test animals. Treatment was effected 24 hours after the infection. 10 control animals were treated in the same manner with solvent or suspension medium per test.
All substances were tested in a first test in a single dosage of 10 mg/kg. Only those substances which in this test (10 mg/kg) had shown a parasitaemia reduction of 90% were used for the titration.
48 hours after the treatment (D+3), blood smears were prepared from all animals using blood from tail veins and were stained with Giemsa. The average erythrocyte infection rate (parasitemia in %) in the control groups as well as in the groups which had been treated with the test compounds was determined by counting under a microscope. The difference in the average values of the infection rates of control group (100%) and treated groups was calculated and expressed as a percentage reduction (GI %). The ED50 or ED90 was determined mathematically by means of the JMP programme (nonlinear fit). The ED50 (ED90) in mg/kg is that dose which after single administration reduces the average erythrocyte infection rate by 50% (90%) in comparison to the control group.
Table 2 below contains data with respect to the activity measured against Plasmodium berghei in mice: GI % is the percentage reduction in the parasitemia after a single dose of 10 mg/kg of the test substance administered perorally (po) or subcutaneously (sc); ED50 and ED90 are the effective doses of the test substance administered perorally or subcutaneously.

[14] = single dose 10 mg/kg po, read-out: GI % at 10 mg/kg (po): percentage reduction in the parasitemia
[15] = single dose 10 mg/kg sc, read-out: GI % at 10 mg/kg (sc): percentage reduction in the parasitemia

Structure (SMILES) | IC50 [1] | IC50 [2] | IC50 [3] | IC50 [4] | IC50 [5] | IC50 [6] | IC50 [7] | IC50 [8] | IC50 [9] | IC50 [10] | IC50 [11] | IC50 [12] | ED50 [13] | inhibition in vivo at 10 mg/kg [13, 14] | inhibition in vivo at 10 mg/kg [13, 15]
CC(CN(C)C)Nc1ccnc2cc(Cl)ccc12 (racemic) [Example 1, (RS)-N2-(7-Chloro-quinolin-4-yl)-N1,N1-dimethyl-propane-1,2-diamine] | 4 ng/mL (≈ 0.0152 µM) | 8 ng/mL (≈ 0.0303 µM) | 7 ng/mL (≈ 0.0265 µM) | 7 ng/mL (≈ 0.0265 µM) | 5 ng/mL (≈ 0.019 µM) | 0.015 µg/mL (≈ 0.0569 µM) | 4 ng/mL (≈ 0.0152 µM) | 8 ng/mL (≈ 0.0303 µM) | 0.009 µg/mL (≈ 0.0341 µM) | 0.009 µg/mL (≈ 0.0341 µM) | 9 ng/mL (≈ 0.0341 µM) | 7 ng/mL (≈ 0.0265 µM) | 2.3 mg/kg | 99.9% | 99.9%
CCN(CC)CC(C)Nc1ccnc2cc(Cl)ccc12 (racemic) [Example 2, (RS)-N2-(7-Chloro-quinolin-4-yl)-N1,N1-diethyl-propane-1,2-diamine] | 7 ng/mL (≈ 0.024 µM) | 7 ng/mL (≈ 0.024 µM) | 7 ng/mL (≈ 0.024 µM) | 7 ng/mL (≈ 0.024 µM) | 6 ng/mL (≈ 0.0206 µM) | 0.008 µg/mL (≈ 0.0274 µM) | 5 ng/mL (≈ 0.0171 µM) | 6 ng/mL (≈ 0.0206 µM) | 0.014 µg/mL (≈ 0.048 µM) | 0.008 µg/mL (≈ 0.0274 µM) | 8 ng/mL (≈ 0.0274 µM) | 9 ng/mL (≈ 0.0308 µM) | 3.2 mg/kg | 99.8% | 99.9%
C[C@@H]1CCC[C@H](C)N1CCNc1ccnc2cc(Cl)ccc12 [Example 28, (2R,6S)-(7-Chloro-quinolin-4-yl)-[2-(2,6-dimethyl-piperidin-1-yl)-ethyl]-amine] | 7 ng/mL (≈ 0.022 µM) | 14 ng/mL (≈ 0.044 µM) | 11 ng/mL (≈ 0.0346 µM) | 9 ng/mL (≈ 0.0283 µM) | 5 ng/mL (≈ 0.0157 µM) | 0.016 µg/mL (≈ 0.0503 µM) | 6 ng/mL (≈ 0.0189 µM) | 9 ng/mL (≈ 0.0283 µM) | 0.016 µg/mL (≈ 0.0503 µM) | 0.018 µg/mL (≈ 0.0566 µM) | 9 ng/mL (≈ 0.0283 µM) | 15 ng/mL (≈ 0.0472 µM) |  |  | 
CC1CC(C)CN(CCNc2ccnc3cc(Cl)ccc23)C1 (stereo not drawn) [Example 29, (7-Chloro-quinolin-4-yl)-[2-(3,5-dimethyl-piperidin-1-yl)-ethyl]-amine] | 6 ng/mL (≈ 0.0189 µM) | 6 ng/mL (≈ 0.0189 µM) | 7 ng/mL (≈ 0.022 µM) | 5 ng/mL (≈ 0.0157 µM) | 3 ng/mL (≈ 0.00944 µM) | 0.011 µg/mL (≈ 0.0346 µM) | 6 ng/mL (≈ 0.0189 µM) | 7 ng/mL (≈ 0.022 µM) | 0.016 µg/mL (≈ 0.0503 µM) | 0.015 µg/mL (≈ 0.0472 µM) | 5 ng/mL (≈ 0.0157 µM) | 11 ng/mL (≈ 0.0346 µM) |  |  | 
CC1CCC(C)N1CCNc1ccnc2cc(Cl)ccc12 (stereo not drawn) [Example 30, (7-Chloro-quinolin-4-yl)-[2-(2,5-dimethyl-pyrrolidin-1-yl)-ethyl]-amine] | 7 ng/mL (≈ 0.023 µM) | 9 ng/mL (≈ 0.0296 µM) | 10 ng/mL (≈ 0.0329 µM) | 8 ng/mL (≈ 0.0263 µM) | 11 ng/mL (≈ 0.0362 µM) | 0.016 µg/mL (≈ 0.0527 µM) | 7 ng/mL (≈ 0.023 µM) | 7 ng/mL (≈ 0.023 µM) | 0.014 µg/mL (≈ 0.0461 µM) | 0.015 µg/mL (≈ 0.0494 µM) | 15 ng/mL (≈ 0.0494 µM) | 8 ng/mL (≈ 0.0263 µM) |  |  | 
Clc1ccc2c(NCCN3CCC4CCCCC43)ccnc2c1 (stereo not drawn) [Example 31] | 5 ng/mL (≈ 0.0152 µM) | 5 ng/mL (≈ 0.0152 µM) | 5 ng/mL (≈ 0.0152 µM) | 6 ng/mL (≈ 0.0182 µM) | 5 ng/mL (≈ 0.0152 µM) | 0.014 µg/mL (≈ 0.0424 µM) | 7 ng/mL (≈ 0.0212 µM) | 7 ng/mL (≈ 0.0212 µM) | 0.011 µg/mL (≈ 0.0333 µM) | 0.014 µg/mL (≈ 0.0424 µM) | 9 ng/mL (≈ 0.0273 µM) | 7 ng/mL (≈ 0.0212 µM) |  |  | 
Clc1ccc2c(NCCN3CC4CCC(CC4)C3)ccnc2c1 [Example 32] | 7 ng/mL (≈ 0.0212 µM) | 9 ng/mL (≈ 0.0273 µM) | 9 ng/mL (≈ 0.0273 µM) | 8 ng/mL (≈ 0.0243 µM) | 7 ng/mL (≈ 0.0212 µM) | 0.016 µg/mL (≈ 0.0485 µM) | 10 ng/mL (≈ 0.0303 µM) | 15 ng/mL (≈ 0.0455 µM) | 0.016 µg/mL (≈ 0.0485 µM) | 0.015 µg/mL (≈ 0.0455 µM) | 15 ng/mL (≈ 0.0455 µM) | 13 ng/mL (≈ 0.0394 µM) |  |  | 
